We go through 23 molecules from patent US20080153917A1, “Sigma Receptor Ligands” (UCB PHARMA, S.A., priority 2004, published 2008).

Structures can show the parent of a compound that is named as a salt.

System in the first data set: not given
Experiment: not given
Details: not given
One may read the melting point as the temperature, or range, at which the solid turns liquid. Consider `CC1CCCCN1CCCNC(=O)C(c1ccccc1)C1CCCC1` (centres unmarked) (as salt: HCl) [Compound 14, 2-cyclopentyl-N-[3-(2-methyl-1-piperidinyl)propyl]-2-phenylacetamide], for which the melting point was found to be 69 °C.

In the case of `CCN(CC)CCNC(=O)C(c1ccccc1)C1CCCC1` (centres unmarked) (as salt: HCl) [Compound 15, 2-cyclopentyl-N-[2-(diethylamino)ethyl]-2-phenylacetamide], the melting point is 129 °C.

As to `CCNCCNC(=O)C(c1ccccc1)C1CCCC1` (centres unmarked) (as salt: HCl) [Compound 18, 2-cyclopentyl-N-[2-(ethylamino)ethyl]-2-phenylacetamide], the melting point is 131 °C.

For the molecule `CCN(CC)CCNC(=O)C(c1ccc(F)cc1)C1CCCC1` (centres unmarked) (as salt: HCl) [Compound 21, 2-cyclopentyl-N-[2-(diethylamino)ethyl]-2-(4-fluorophenyl)acetamide], the melting point amounted to 45 °C.

`NCCNC(=O)C(c1ccccc1)C1CCCC1` (centres unmarked) (as salt: HCl) [Compound 22, N-(2-aminoethyl)-2-cyclopentyl-2-phenylacetamide] showed a melting point of 290 °C.

`O=C(C(c1ccccc1)C1CCCC1)N1CCC(N2CCCCC2)CC1` (centres unmarked) (as salt: HCl) [Compound 24, 1′-[cyclopentyl(phenyl)acetyl]-1,4′-bipiperidine] returned a melting point of 112 °C.

Take `O=C(C(c1ccc(Cl)c(Cl)c1)C1CCCC1)N1CCC(N2CCCCC2)CC1` (centres unmarked) (as salt: HCl) [Compound 25, 1′-[cyclopentyl(3,4-dichlorophenyl)acetyl]-1,4′-bipiperidine]: the melting point is 230 °C.

On to `O=C(C(c1ccc(Cl)cc1)C1CCCC1)N1CCC(N2CCCCC2)CC1` (centres unmarked) (as salt: HCl) [Compound 27, 1′-[(4-chlorophenyl)(cyclopentyl)acetyl]-1,4′-bipiperidine], for which the melting point stood at 105 °C.

Consider `O=C(NCCCN1CCOCC1)C(c1ccccc1)C1CCCC1` (centres unmarked) (as salt: HCl) [Compound 32, 2-cyclopentyl-N-[3-(4-morpholinyl)propyl]-2-phenylacetamide], for which the melting point amounted to 145 °C.

`O=C(NCCCN1CCN(Cc2c(F)cccc2Cl)CC1)C(c1ccccc1)C1CCCC1` (centres unmarked) (as salt: HCl) [Compound 34, N-{3-[4-(2-chloro-6-fluorobenzyl)-1-piperazinyl]propyl}-2-cyclopentyl-2-phenylacetamide]: the melting point is 148 °C.

`CCN(CC)C1CCN(C(=O)C(c2ccccc2)C2CCCC2)CC1` (centres unmarked) (as salt: HCl) [Compound 37, N-{1-[cyclopentyl(phenyl)acetyl]-4-piperidinyl}-N,N-diethylamine] gave a melting point of 79 °C.

Consider `CCOC(=O)C1CCN(C2CCN(C(=O)C(c3ccccc3)C3CCCC3)CC2)CC1` (centres unmarked) (as salt: HCl) [Compound 40, ethyl 1′-[cyclopentyl(phenyl)acetyl]-1,4′-bipiperidine-4-carboxylate], for which the melting point was 88 °C.

`O=C(C(c1ccccc1)C1CCCC1)N1CCC(N2CCC(O)CC2)CC1` (centres unmarked) (as salt: HCl) [Compound 41, 1′-[cyclopentyl(phenyl)acetyl]-1,4′-bipiperidin-4-ol] gave a melting point of 90 °C.

`O=C(C(c1ccccc1)C1CCCC1)N1CCC(N2CCOCC2)CC1` (centres unmarked) (as salt: Na) [Compound 36, 4-{1-[cyclopentyl(phenyl)acetyl]-4-piperidinyl}morpholine]: the melting point was found to be 111.8 °C.

In the case of `CC(C)N1CCN(C2CCN(C(=O)C(c3ccccc3)C3CCCC3)CC2)CC1` (centres unmarked) (as salt: Na) [Compound 38, 1-{1-[cyclopentyl(phenyl)acetyl]-4-piperidinyl}-4-isopropylpiperazine], the melting point was 109.6 °C.

Consider `CN(C)[C@H]1CCN(C(=O)C(c2ccccc2)C2CCCC2)C1` (stereo partly drawn) (as salt: Na) [Compound 42, (3S)-1-[cyclopentyl(phenyl)acetyl]-N,N-dimethyl-3-pyrrolidinamine], for which the melting point is 68 °C.

On to `O=C(NCCCN1CCN(Cc2c(F)cccc2Cl)CC1)[C@@H]1C[C@H]1c1ccccc1` (relative stereo) (as salt: HCl) [Compound 5, Trans-N-{3-[4-(2-chloro-6-fluorobenzyl)-1-piperazinyl]propyl}-2-phenylcyclopropanecarboxamide], for which the melting point was determined as 145 °C.

Molecule `O=C(NCCN1CCN(Cc2ccccc2)CC1)[C@@H]1C[C@H]1c1ccccc1` (relative stereo) (as salt: HCl) [Compound 7, Trans-N-[2-(4-benzyl-1-piperazinyl)ethyl]-2-phenylcyclopropanecarboxamide] gave a melting point of 195 °C.

Molecule `O=C(NCCN1CCN(C(=O)c2c(F)cccc2Cl)CC1)[C@@H]1C[C@H]1c1ccccc1` (relative stereo) (as salt: HCl) [Compound 9, Trans-N-{2-[4-(2-chloro-6-fluorobenzoyl)-1-piperazinyl]ethyl}-2-phenylcyclopropanecarboxamide] gave a melting point of 122 °C.

For `O=C(NCCN1CCN(Cc2ccc(Cl)c(Cl)c2)CC1)[C@@H]1C[C@H]1c1ccccc1` (relative stereo) (as salt: HCl) [Compound 10, Trans-N-{2-[4-(3,4-dichlorobenzyl)-1-piperazinyl]ethyl}-2-phenylcyclopropanecarboxamide], the melting point amounted to 145 °C.

Molecule `CCN(CC)CCNC(=O)C(c1ccccc1)C1CCCC1` (single isomer, unassigned; (+)) (as salt: HCl) [Compound 50, (+)2-cyclopentyl-N-[2-(diethylamino)ethyl]-2-phenylacetamide] gave a melting point of 144 °C.

Molecule `CCN(CC)CCNC(=O)C(c1ccccc1)C1CCCC1` (single isomer, unassigned; (-)) (as salt: HCl) [Compound 51, (−)2-cyclopentyl-N-[2-(diethylamino)ethyl]-2-phenylacetamide] showed a melting point of 146 °C.

The subject of another data set is MK801-induced short term/working memory deficits. Briefly: spontaneous alternation task (Y-shaped maze), short term/working memory. The format is in vivo. The conditions noted are these: male mice, 8 minutes in maze; normal mice 65-70 %. An excerpt: The effect of claimed compounds has been evaluated in an animal model of short term/working memory, namely the spontaneous alternation task. The test system consisted of a symmetrical Y-shaped maze. […] Claimed compounds were able to prevent this deficit after systemic administration.
Turning to `C[C@]12N[C@H](Cc3ccccc31)c1ccccc12` [MK801], the “% spontaneous alternation” value is given as “decreased percentage of spontaneous alternation”.
